This is an account of results in patent publication US10208040B2, “Fused imidazo-piperidine JAK inhibitors” (THERAVANCE BIOPHARMA R&D IP, LLC, priority 2017, dated 2019).

As usually defined, the Ki is the equilibrium dissociation constant of an inhibitor or competing ligand from its target.

The subject of assay [1] is IL-2/anti-CD3 stimulated IFNγ in human PBMCs. Description: Inhibition of IL-2/anti-CD3 stimulated IFNγ in human PBMCs. Format: cell-based. Conditions: PBMC, read-out: pIC50 inhibition of IL-2/anti-CD3 stimulated IFNγ (converted). The method, then: The potency of the test compound for inhibition of interleukin-2 (IL-2)/anti-CD3 stimulated interferon gamma (IFNγ) was measured in human peripheral blood mononuclear cells (PBMCs) isolated from human whole blood (Stanford Blood Center). Because IL-2 signals through JAK, this assay provides a measure of JAK cellular potency.
(1) Human peripheral blood mononuclear cells (PBMC) were isolated from human whole blood of healthy donors using a ficoll gradient. Cells were cultured in a 37° C., 5% CO2 humidified incubator in RPMI (Life Technologies) supplemented with 10% Heat Inactivated Fetal Bovine Serum (FBS, Life Technologies), 2 mM Glutamax (Life Technologies), 25 mM HEPES (Life Technologies) and 1× Pen/Strep (Life Technologies). Cells were seeded at 200,000 cells/well in media (50 μL) and cultured for 1 h. Compounds were serially diluted in DMSO and then diluted another 500-fold (to a 2× final assay concentration) in media. Test compounds (100 μL/well) were added to cells, and incubated at 37° C., 5% CO2 for 1 h, followed by the addition of IL-2 (R&D Systems; final concentration 100 ng/mL) and anti-CD3 (BD Biosciences; final concentration 1 μg/mL) in pre-warmed assay media (50 μL) for 24 h.
(2) After cytokine stimulation, cells were centrifuged at 500 g for 5 min and supernatants removed and frozen at −80° C. To determine the inhibitory potency of the test compound in response to IL-2/anti-CD3, supernatant IFNγ concentrations were measured via ELISA (R&D Systems). IC50 values were determined from analysis of the inhibition curves of concentration of IFNγ vs compound concentration. Data are expressed as pIC50 (negative decadic logarithm IC50) values.

The target of a further assay is Tyk2 (Homo sapiens (Human), UniProt P29597). Description: Biochemical JAK kinase assay (LanthaScreen), Tyk2. The method, then: (§1) A panel of four LanthaScreen JAK biochemical assays (JAK1, 2, 3 and Tyk2) were carried in a common kinase reaction buffer (50 mM HEPES, pH 7.5, 0.01% Brij-35, 10 mM MgCl2, and 1 mM EGTA). Recombinant GST-tagged JAK enzymes and a GFP-tagged STAT1 peptide substrate were obtained from Life Technologies.
Sequence of Tyk2 (P29597 whole entry): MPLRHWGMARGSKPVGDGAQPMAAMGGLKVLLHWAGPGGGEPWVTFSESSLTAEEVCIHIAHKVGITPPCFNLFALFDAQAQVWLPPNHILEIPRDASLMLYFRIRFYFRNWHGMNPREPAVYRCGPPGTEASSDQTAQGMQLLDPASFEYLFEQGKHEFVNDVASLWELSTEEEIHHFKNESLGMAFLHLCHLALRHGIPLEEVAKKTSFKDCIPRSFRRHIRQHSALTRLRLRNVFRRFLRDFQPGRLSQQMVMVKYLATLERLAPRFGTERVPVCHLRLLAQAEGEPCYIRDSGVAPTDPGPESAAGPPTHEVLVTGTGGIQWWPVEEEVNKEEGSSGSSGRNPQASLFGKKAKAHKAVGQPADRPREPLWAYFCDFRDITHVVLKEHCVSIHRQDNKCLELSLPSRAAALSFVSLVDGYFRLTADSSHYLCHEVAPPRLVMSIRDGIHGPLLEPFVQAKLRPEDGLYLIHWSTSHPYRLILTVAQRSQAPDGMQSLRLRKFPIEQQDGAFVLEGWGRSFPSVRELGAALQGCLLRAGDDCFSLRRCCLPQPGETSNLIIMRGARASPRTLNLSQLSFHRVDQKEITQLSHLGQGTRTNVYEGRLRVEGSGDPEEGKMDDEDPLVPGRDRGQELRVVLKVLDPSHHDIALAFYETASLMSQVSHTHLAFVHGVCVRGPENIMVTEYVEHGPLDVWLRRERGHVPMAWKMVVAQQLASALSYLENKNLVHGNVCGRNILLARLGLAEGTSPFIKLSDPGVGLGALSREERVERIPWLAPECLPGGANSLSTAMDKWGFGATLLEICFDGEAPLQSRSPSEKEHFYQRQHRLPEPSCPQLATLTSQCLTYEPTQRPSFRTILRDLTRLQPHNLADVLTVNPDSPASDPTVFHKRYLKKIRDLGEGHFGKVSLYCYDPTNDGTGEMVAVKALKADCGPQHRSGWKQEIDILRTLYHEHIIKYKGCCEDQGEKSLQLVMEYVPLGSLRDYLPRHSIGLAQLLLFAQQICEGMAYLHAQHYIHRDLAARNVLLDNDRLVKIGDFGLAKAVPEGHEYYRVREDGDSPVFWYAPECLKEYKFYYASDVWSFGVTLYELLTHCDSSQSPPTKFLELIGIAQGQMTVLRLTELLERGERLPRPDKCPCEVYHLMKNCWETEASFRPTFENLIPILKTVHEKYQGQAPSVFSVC
(§2) Serially diluted compounds were pre-incubated with each of the four JAK enzymes and the substrate in white 384-well microplates (Corning) at ambient temperature for 1 h. ATP was subsequently added to initiate the kinase reactions in 10 μL total volume, with 1% DMSO. […] The plates were allowed to incubate at ambient temperature for 1 h before being read on the EnVision reader (Perkin Elmer).
(§3) For dose-response analysis, percent inhibition data were plotted vs. compound concentrations, and IC50 values were determined from a 4-parameter robust fit model with the Prism software (GraphPad Software). Results were expressed as pIC50 (negative logarithm of IC50) and subsequently converted to pKi (negative logarithm of dissociation constant, Ki) using the Cheng-Prusoff equation.
(TR-FRET usually uses a lanthanide donor and a delayed reading to cut background.)

The target of another assay is JAK3 (Homo sapiens (Human), UniProt P52333). Description: Biochemical JAK kinase assay (LanthaScreen), JAK3. The method, then: as §1, §2, §3
Sequence of JAK3 (P52333 whole entry): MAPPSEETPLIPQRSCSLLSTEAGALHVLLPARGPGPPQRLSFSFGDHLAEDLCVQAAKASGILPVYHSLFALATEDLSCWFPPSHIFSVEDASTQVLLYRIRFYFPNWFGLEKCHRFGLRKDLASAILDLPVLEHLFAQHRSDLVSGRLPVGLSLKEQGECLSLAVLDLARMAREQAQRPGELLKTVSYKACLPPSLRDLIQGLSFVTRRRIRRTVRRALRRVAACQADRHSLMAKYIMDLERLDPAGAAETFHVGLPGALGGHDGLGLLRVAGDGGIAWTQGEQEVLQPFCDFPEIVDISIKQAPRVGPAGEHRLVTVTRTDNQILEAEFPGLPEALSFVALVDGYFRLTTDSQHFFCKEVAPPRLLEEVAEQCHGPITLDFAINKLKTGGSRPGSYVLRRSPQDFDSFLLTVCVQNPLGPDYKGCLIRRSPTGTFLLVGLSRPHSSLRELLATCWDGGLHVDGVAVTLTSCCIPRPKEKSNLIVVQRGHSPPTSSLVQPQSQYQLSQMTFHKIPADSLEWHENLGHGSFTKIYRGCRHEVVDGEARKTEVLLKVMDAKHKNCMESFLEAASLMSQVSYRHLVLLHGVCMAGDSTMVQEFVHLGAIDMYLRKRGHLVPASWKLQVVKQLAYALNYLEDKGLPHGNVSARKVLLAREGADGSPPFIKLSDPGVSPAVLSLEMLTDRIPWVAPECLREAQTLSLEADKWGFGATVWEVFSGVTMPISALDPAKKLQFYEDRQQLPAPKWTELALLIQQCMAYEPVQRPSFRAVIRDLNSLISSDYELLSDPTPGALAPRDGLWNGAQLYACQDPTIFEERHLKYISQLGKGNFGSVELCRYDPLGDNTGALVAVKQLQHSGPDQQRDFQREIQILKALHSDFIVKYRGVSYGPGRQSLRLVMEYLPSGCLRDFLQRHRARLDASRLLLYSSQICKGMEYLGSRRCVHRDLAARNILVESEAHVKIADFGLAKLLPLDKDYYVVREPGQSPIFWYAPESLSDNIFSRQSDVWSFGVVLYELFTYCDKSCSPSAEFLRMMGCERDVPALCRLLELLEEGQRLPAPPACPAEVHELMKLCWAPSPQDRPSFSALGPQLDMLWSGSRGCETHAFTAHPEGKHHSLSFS
In assay [2] the test system is IL-13 induced STAT6 phosphorylation in BEAS-2B human lung epithelial cells. Description: Cellular JAKI potency assay (AlphaScreen, BEAS-2B). Type of assay: cell-based. The following applies: BEAS-2B cells. On the procedure: The AlphaScreen JAKI cellular potency assay was carried out by measuring interleukin-13 (IL-13, R&D Systems) induced STAT6 phosphorylation in BEAS-2B human lung epithelial cells (ATCC). The anti-STAT6 antibody (Cell Signaling Technologies) was conjugated to AlphaScreen acceptor beads (Perkin Elmer), while the anti-pSTAT6 (pTyr641) antibody (Cell Signaling Technologies) was biotinylated using EZ-Link Sulfo-NHS-Biotin (Thermo Scientific).
BEAS-2B cells were grown at 37° C. in a 5% CO2 humidified incubator in 50% DMEM/50% F-12 medium (Life Technologies) supplemented with 10% FBS (Hyclone), 100 U/mL penicillin, 100 μg/mL streptomycin (Life Technologies), and 2 mM GlutaMAX (Life Technologies). On day 1 of the assay, cells were seeded at a 7,500 cells/well density in white poly-D-lysine-coated 384-well plates (Corning) with 25 μL medium, and were allowed to adhere overnight in the incubator. On day 2 of the assay, the medium was removed and replaced with 12 μL of assay buffer (Hank's Balanced Salt Solution/HBSS, 25 mM HEPES, and 1 mg/ml bovine serum albumin/BSA) containing dose-responses of test compounds. Compounds were serially diluted in DMSO and then diluted another 1000-fold in media to bring the final DMSO concentration to 0.1%. Cells were incubated with test compounds at 37° C. for 1 h, and followed by the addition of 12 μl of pre-warmed IL-13 (80 ng/mL in assay buffer) for stimulation. After incubating at 37° C. for 30 min, the assay buffer (containing compound and IL-13) was removed, and 10 μL of cell lysis buffer (25 mM HEPES, 0.1% SDS, 1% NP-40, 5 mM MgCl2, 1.3 mM EDTA, 1 mM EGTA, and supplement with Complete Ultra mini protease inhibitors and PhosSTOP from Roche Diagnostics). The plates were shaken at ambient temperature for 30 min before the addition of detection reagents. A mixture of biotin-anti-pSTAT6 and anti-STAT6 conjugated acceptor beads was added first and incubated at ambient temperature for 2 h, followed by the addition of streptavidin conjugated donor beads (Perkin Elmer). After a minimum of 2 h incubation, the assay plates were read on the EnVision plate reader. AlphaScreen luminescence signals were recorded and utilized to calculate the percent inhibition values based on DMSO and background controls.
For dose-response analysis, percent inhibition data were plotted vs. compound concentrations, and IC50 values were determined from a 4-parameter robust fit model with the Prism software. Results may also be expressed as the negative logarithm of the IC50 value, pIC50.
Test compounds having a lower IC50 value or higher pIC50 value in this assay show greater inhibition of IL-13 induced STAT6 phosphorylation.

As to `CCCN1Cc2[nH]c(-c3n[nH]c4cc(-c5cc(F)c(O)cc5CC)ccc34)nc2C[C@H]1C(=O)N1C[C@@H]2C[C@H]1CN2C` [Example 1, ((S)-2-(6-(2-ethyl-5-fluoro-4-hydroxyphenyl)-1H-indazol-3-yl)-5-propyl-4,5,6,7-tetrahydro-3H-imidazo[4,5-c]pyridin-6-yl)((1S,4S)-5-methyl-2,5-diazabicyclo-[2.2.1]heptan-2-yl)methanone], the IC50 in assay [1] was ~126 nM; in assay [2] it was 5 nM. For the same compound, the values for the inhibition constant Ki on Tyk2 and on JAK3 were 0.25 nM and 0.08 nM, respectively.
For the compound `CCc1cc(O)c(F)cc1-c1ccc2c(-c3nc4c([nH]3)CN(CC)[C@@H](C(=O)N3CCN(C(C)(C)C)CC3)C4)n[nH]c2c1` [Example 1-37], the values for the IC50 in assay [1] and in assay [2] were ~63.1 nM and 5.9 nM, respectively. Moreover, the Ki at Tyk2 worked out at 1.26 nM; at JAK3 it was 0.5 nM.
For `CCc1cc(O)c(F)cc1-c1ccc2c(-c3nc4c([nH]3)CN(C(C)C)[C@H](C(=O)N3CC[C@H](N(C)C)C3)C4)n[nH]c2c1` [Example 3], in that order: ~63.1 nM, 5.9 nM, 0.4 nM and 0.1 nM.
